Values of other authors as cited in patent US8410082B2, “Fluorinated diaryl urea derivatives” (Concert Pharmaceuticals, Inc., priority 2009, dated 2013).

Details: main circulating metabolite of sorafenib in plasma

Compound: [O-][n+]1ccccc1 [pyridine N-oxide]
- share of circulating analytes at steady-state: 9-16%
